Values after ≈ are worked out from the molar mass of the structure shown.

The conditions of this series: buffer; pH 7.4; 6.0 h; 150.0 µM.
For `FC(F)(F)Oc1cccc(Nc2nc(-c3ccncc3)nc3ccccc23)c1`, the solubility (kinetic) is below 1 µg/mL.

`Cc1cc(C)c(C(=O)Nc2cccc([S+](=O)([O-])N3CCCCCC3)c2)[nH]1` gave a kinetic solubility below 1 µg/mL.

`Cc1cc(N=Nc2ccc(S(=O)(=O)Nc3ccccn3)cc2)c(N)cc1O` returned a kinetic solubility of 3.69 µg/mL (≈ 9.63 µM).

`COc1c(C)cc(NC(=O)c2nn(Cc3ccc(F)cc3)c3c2CN(C(=O)c2ccc[nH]2)C[C@]3(C)C(N)=O)cc1C` yielded a kinetic solubility below 1 µg/mL.

Regarding `Cc1cccc(-c2cc(NC(=O)c3ccccc3C)n(-c3ccccc3)n2)c1`, the kinetic solubility was below 1 µg/mL.

Consider `CCN1C(=O)c2ccccc2[S@](=O)c2ccc(C(=O)NCc3ccc(C#N)cc3)cc21`, for which the solubility (kinetic) came to 29.4 µg/mL (≈ 68.5 µM).

Take `COc1cc(C2c3c(oc4cc(C)c(C)cc4c3=O)C(=O)N2CCCN2CCOCC2)ccc1O` (stereo not drawn): the kinetic solubility is above 71 µg/mL.

For the molecule `O=S(=O)(Nc1cnc2ccccc2c1)c1ccc(NCc2ccc(Br)cc2O)cc1`, the kinetic solubility is below 1 µg/mL.

`COc1ccc(-c2noc([C@@H]3Cc4nc[nH]c4CN3C(=O)NC3CCCCC3)n2)cc1` came in with a solubility (kinetic) of 30.5 µg/mL (≈ 72.1 µM).

Molecule `Cc1ccc(S(=O)(=O)Nc2cnccc2C(=O)Nc2ccc(N3CCOCC3)cc2)cc1` showed a solubility (kinetic) above 67 µg/mL.

Consider `Cn1cnc(S(=O)(=O)Nc2cnccc2C(=O)Nc2nc(-c3ccccc3)cs2)c1`, for which the kinetic solubility is above 65 µg/mL.

`CC(C)NC(=O)c1nc(-c2ccc(Cl)nc2)c2ccccn12` had a solubility (kinetic) of 17.2 µg/mL (≈ 54.6 µM).

For `CCOC(=O)N1CCc2c(sc(NCc3sccc3C)c2C(=O)Nc2cc(Cl)ccc2OC)C1`, the solubility (kinetic) is below 1 µg/mL.

Molecule `c1ccc(Nc2cc(-c3ccoc3)ncn2)cc1` showed a kinetic solubility of 16.2 µg/mL (≈ 68.3 µM).

As to `COc1ccc(CN2CCc3c(c(=O)n4ncc(C(=O)N5CCN(c6ccccc6OC)CC5)c4n3C)C2)cc1`, the solubility (kinetic) is 14.2 µg/mL (≈ 26.1 µM). This solubility kinetic and that of the molecule before are within 1.5-fold of each other.

As to `Clc1cccc(COc2cncc(N3CCNCC3)n2)c1`, the kinetic solubility is above 45 µg/mL.

For `COc1ccc2oc(NC3=NC(c4[nH]ncc4Cl)C4=C(CCCC4=O)N3)nc2c1` (stereo not drawn), the solubility (kinetic) came to 11.2 µg/mL (≈ 27.2 µM).

Regarding `O=C(O)c1c(Sc2ccccc2)c2cc(Cl)ccc2n1Cc1ccc(Cl)cc1`, the kinetic solubility was above 63 µg/mL.

As for `COc1cc(/C=C(\C#N)c2nc3ccccc3[nH]2)ccc1OCc1ccc(F)cc1`, the kinetic solubility was below 1 µg/mL.

Molecule `Cc1cc(-c2nnc3n2CCCCC3)c(C)n1-c1ccc([N+](=O)[O-])cc1` registered a solubility (kinetic) above 52 µg/mL.

`CN1CCN(C(c2ccccc2)c2ccccc2)CC1` had a kinetic solubility above 39 µg/mL.

In turn, `O=S(=O)(Nc1nccs1)c1ccc(NCc2cccc3cc[nH]c23)cc1` returned a kinetic solubility of 20.5 µg/mL (≈ 53.2 µM).

Molecule `Cc1cnc(-c2ccccc2C2COC2)nc1NCc1ccc(-c2cccnc2)cc1` returned a solubility (kinetic) above 60 µg/mL.

The molecule `CCN(CC)S(=O)(=O)c1ccc2oc(C(=O)Nc3ccc(Br)cc3F)c(C)c2c1` registered a solubility (kinetic) below 1 µg/mL.

`CCCN1C(CC(C)C)=NS(=O)(=O)c2cc(NC(=O)c3cccs3)ccc21` came in with a kinetic solubility below 1 µg/mL.

In turn, `Cc1cccc(C)c1Nc1c(-c2ccccn2)nc2ccc(Cl)cn12` yielded a kinetic solubility below 1 µg/mL.

With `C[C@@H](NC(=O)c1ncnc(N)c1Cl)c1ncc(C(=O)Nc2cc(C(F)(F)F)c(Cl)cn2)s1`, the solubility (kinetic) is above 75 µg/mL.

In turn, `COc1ccc(-c2ccc3nc(-c4ccccc4C)oc3c2)c(OC)c1OC` returned a solubility (kinetic) below 1 µg/mL.

As to `CC(C)c1ccccc1-c1ncc(F)c(NCc2ccc(-n3ccnn3)cc2)n1`, the kinetic solubility came to 2.13 µg/mL (≈ 5.49 µM).

Molecule `CCOc1ccc(CCNC(=O)c2cc3ccccc3n2Cc2cc(C)cc(C)n2)cc1OCC` returned a solubility (kinetic) below 1 µg/mL.

As to `CCN(CC)S(=O)(=O)c1cccc(C(=O)Nc2ccc(C#N)cc2)c1`, the kinetic solubility came to 10.2 µg/mL (≈ 28.5 µM).

Molecule `CCOc1ccccc1N(CC(=O)Nc1cc(OC)ccc1OC)S(=O)(=O)c1ccccc1` gave a kinetic solubility below 1 µg/mL.

The molecule `CN(Cc1cccs1)c1ncnc2ccc(-c3ccc4c(c3)OCO4)cc12` returned a kinetic solubility below 1 µg/mL.

On to `CC(C)N(CCCNC(=O)Nc1ccc(C(C)(C)C)cc1)C[C@H]1O[C@@H](n2ccc3c(N)ncnc32)[C@H](O)[C@@H]1O`, for which the kinetic solubility was above 80 µg/mL.

For the molecule `CCCCN(CC)CCCNC(=O)c1ccc2c(c1)N(Cc1ccc(C)cc1)C(=O)c1ccccc1S2`, the kinetic solubility was above 76 µg/mL.

On to `CCOc1ccc(-c2nc(SCC(=O)Nc3ccc(C)c(C)c3)n3[nH]c(=O)cc3n2)cc1`, for which the solubility (kinetic) was below 1 µg/mL.

For the molecule `O=C(Cc1ccccc1)Nc1ccc(S(=O)(=O)Nc2nccs2)cc1`, the solubility (kinetic) is above 55 µg/mL.

`CCOC(=O)N1CCN(Cc2nc3c(c(=O)n(C)c(=O)n3C)n2Cc2cccc(C)c2)CC1` displayed a kinetic solubility above 67 µg/mL.

For the molecule `COCCNS(=O)(=O)c1cc(-c2nn3c(C)nnc3c3ccccc23)ccc1C`, the solubility (kinetic) was determined as 29 µg/mL (≈ 70.4 µM).

`COc1ccc(-n2nc(C)c([C@@H]3C=C[C@@H](NCc4cccc(Cl)c4)C3)c2C)cc1` displayed a solubility (kinetic) of 46.2 µg/mL (≈ 113 µM).

In turn, `Oc1ccc(CNc2ccc(C(F)(F)F)cc2F)c2cccnc12` came in with a kinetic solubility of 6.45 µg/mL (≈ 19.2 µM).

Consider `CN(C(=O)c1cn2c(-c3ccc(C(F)(F)F)cc3)cnc2cn1)c1ccc(C#N)cc1`, for which the kinetic solubility stood at 3.56 µg/mL (≈ 8.46 µM).

Take `O=[S+]([O-])(Nc1ccccc1)c1ccc(NCc2cccc(C(F)(F)F)c2Cl)cc1`: the kinetic solubility is below 1 µg/mL.

For `O=S(=O)(Nc1ccc2ccccc2c1)c1ccc(NCc2cccc(Cl)c2O)cc1`, the kinetic solubility was below 1 µg/mL.

As to `CCCNC(=O)Nc1ccc(Oc2ncnc3cc(OC)c(OC)cc23)cc1Cl`, the solubility (kinetic) was 1.55 µg/mL (≈ 3.73 µM).

Consider `COc1cc(NC(=O)Cn2c(=O)oc3cc(S(=O)(=O)N4CCCCCC4)ccc32)cc(OC)c1`, for which the kinetic solubility is below 1 µg/mL.

`O=C1CCCC2=C1C(c1[nH]ncc1Cl)N=C(Nc1nc3ccccc3o1)N2` (stereo not drawn) returned a solubility (kinetic) below 1 µg/mL.

For the molecule `Cc1nc2c(-c3ccccc3)cnn2c(N)c1-c1ccccc1`, the kinetic solubility is below 1 µg/mL.

As to `Brc1ccc(-c2csc(N3CCCCC3)n2)cc1`, the solubility (kinetic) is below 1 µg/mL.

`Cc1cc(-c2nnc3n2CCCCC3)c(C)n1-c1ccc(Cl)cc1` had a solubility (kinetic) of 25.9 µg/mL (≈ 75.9 µM).

In turn, `O=C(Cn1c2ncccc2c(=O)n1-c1ccccc1)Nc1ccc(Cl)cc1C(F)(F)F` registered a kinetic solubility below 1 µg/mL.

`CNc1nc2c(s1)C(c1ccccc1F)CC(=O)N2` (stereo not drawn) displayed a solubility (kinetic) of 13.7 µg/mL (≈ 49.3 µM).

`COc1ccc(-n2nc(C3CCCN(CC4CCCCC4)C3)[nH]c2=O)cc1` (stereo not drawn) showed a solubility (kinetic) above 37 µg/mL.

For the molecule `CC(C)(C)CN1CCNc2cc(Nc3ccccc3)ncc2C1`, the solubility (kinetic) is 38.5 µg/mL (≈ 124 µM).

As for `Cc1cccc(C)c1Nc1c(-c2cccs2)nc2ncccn12`, the solubility (kinetic) was 3.44 µg/mL (≈ 10.8 µM). Against the preceding molecule, the solubility kinetic is about 11-fold lower.

Take `COc1ccc(-n2c(C)c(C(C)=O)c3cc(O)ccc32)cc1`: the solubility (kinetic) came to 5.69 µg/mL (≈ 19.3 µM).

Molecule `CC(=O)NCc1ccc(-c2csc(Nc3cccc(C)c3)n2)o1` showed a kinetic solubility of 29.8 µg/mL (≈ 91.1 µM).

In the case of `COc1cccc(-c2nc3cc(NC(=O)c4ccc(C)c([N+](=O)[O-])c4)ccc3o2)c1`, the kinetic solubility was below 1 µg/mL.

With `CS(=O)(=O)c1cccc(-c2csc(N3CCC(C(N)=O)CC3)n2)c1`, the kinetic solubility amounted to 11.7 µg/mL (≈ 32 µM).

Take `CCOc1ccc(CCNC(=O)c2cc3ncccc3n2Cc2cccc(C)c2)cc1OCC`: the solubility (kinetic) stood at 36.5 µg/mL (≈ 79.7 µM). Against the preceding molecule, the solubility kinetic is about 3.1-fold higher.

The molecule `CC(C)(C)c1ccc(S(=O)(=O)N2CCC(c3ccncc3)CC2)cc1` yielded a solubility (kinetic) below 1 µg/mL.

`NC(=O)C1CCN(c2ncc(-c3cccc(N4CCCCC4)c3)s2)CC1` came in with a kinetic solubility of 32.9 µg/mL (≈ 88.8 µM).

In turn, `Cc1ccc(NC(=O)C(Cc2ccccc2)NS(=O)(=O)c2cccs2)cc1Cl` (stereo not drawn) gave a solubility (kinetic) below 1 µg/mL.

A word on the kinetic solubility: it is solubility judged after dilution from a stock solution rather than from solid.

The record behind these values is PubChem BioAssay AID1645848.
